Assays:
[1] = system: oxygen consumption rate (OCR); assay: Seahorse XF24 metabolic flux analysis (oxygen consumption rate); format: cell-based
Method: Cells were cultured on XF24 plates during experiment. The mitochondrial inhibitors, oligomycin (1 μM), FCCP (0.1 μM) and Rotenone (1 μM) were added after four measurements of basal OCR as described previously.^14 • RNA Isolation, Reverse Transcription and Quantitative PCR

RXR = RXR agonist treatment, expression of lipogenic and triglyceride biosynthetic genes; format: cell-based; settings: FIG. 6A
From the text: To address how NR3B may inhibit the lipogenic and triglyceride synthesis process, the RNA-seq data for SREBP and Chrebp, two transcriptional factors directly involved in the biosynthesis of lipid was explored. […] RXR binds to both PPARg and LXR and has the potential to regulate lipid metabolism through its interaction with these two nuclear receptors. It was explored whether RXR activation alters the expression of the lipogenic and triglyceride biosynthetic genes.

Row | Structure (SMILES) | basal oxygen consumption rate (OCR) ([1]; 0.1 μM, FIG. 2A) | maximal oxygen consumption rate (OCR) ([1]; 0.1 μM, FIG. 2A) | effect on the NR3B-PA induced change of OCR ([1]; co-treatment with NR3B-PA, FIG. 6B) | expression of AGPAT3 (RXR) | expression of DGAT2 (RXR) | expression of Fasn (RXR)
1 | COc1cc(/C=C(\C#N)C(=O)Nc2nnc(C(F)(F)F)s2)ccc1OCc1ccc(C(F)(F)F)cc1C(F)(F)F [XCT 790] | similar | similar |  |  |  | 
2 | C=C(c1ccc(C(=O)O)cc1)c1cc2c(cc1C)C(C)(C)CCC2(C)C [Bexarotene] |  |  | did not block | induction | induction | induction

From US20200085853A1, “TARGETING NR3B1 FOR TREATMENT OF NASH” (University of Southern California, priority 2018, published 2020)
